{"source": "patent US20100028360A1", "about": "“METHODS FOR THE MODULATION OF BRAIN PROGESTAGEN SIGNALING IN THE PREVENTION AND TREATMENT OF NEUROLOGICAL DISORDERS AND NEURODEGENERATIVE DISEASES” (priority 2008, published 2010)", "key": {"hESC [1]": {"test_system": "hESC", "test": "hESC cell proliferation, trypan blue assay", "assay_type": "cell-based, human", "conditions": "E2 10 nM, P4 2 μM or E2+P4, 6 d; compared to untreated control cells", "description": "(§1) FIG. 1. P4 differentiates hESC into neuroectoderm. (a) hESC were grown in TESR1 media—Li in the presence of E2 (10 nM), P4 (2 μM) or E2 (10 nM)+P4 (2 μM) for 6 d and cell proliferation measured using the trypan blue assay. Results are expressed as mean±SEM, n=3 (*p<0.05, **p<0.005 compared to 6 d control). (b) Equal amounts of protein from cell lysates of hESC treated for 9 d as described above were analyzed by immunoblot using a monoclonal antibody against nestin (clone 10C2; Chemicon, Calif., USA). (c) hESC were cultured for 4 d, enzymatically lifted and placed into EB media (containing serum) and rocked gently for an additional 4 d prior to being placed in one of two neural induction medias for an additional 11 days, where P4 was either absence or present. During this transition from EB to rosettes, colony structures treated with P4 also were treated with a PR antagonist (RU-486; 20 μM) or ER antagonist (ICI 182,780) for 11 d. At 19 d, morphological observation and molecular analysis were performed. […] (ii) hESC structure in the absence of P4. (iii) PR antagonist treated rosettes (RU-486, 20 μM). (iv) ER antagonist (ICI 182,780). (d) Equal amounts of protein from cell lysates of the above structures were analyzed by immunoblot with the monoclonal antibody against human nestin."}, "hESC [2]": {"test_system": "hESC", "test": "EB and neuroectodermal rosette/NPC formation from hESC, morphological observation", "assay_type": "cell-based, human", "conditions": "neural induction media with P4, antagonist for 11 d (RU-486 20 μM); observed at 19 d", "description": "as §1"}, "nestin": {"test_system": "nestin", "test": "nestin immunoblot of hESC / EB-rosette structure lysates", "assay_type": "cell-based, human", "description": "as §1"}, "[3]": {"test_system": "Tg2576 mice carrying the Swedish AβPP mutation", "conditions": "aged Tg2576 transgenic mice; cited from earlier work"}, "rat hippocampal slices": {"test_system": "rat hippocampal slices", "test": "extracellular field responses in CA1 of isolated hippocampal slices", "assay_type": "cell-based", "conditions": "50 nM", "description": "FIG. 3. GnRH1 increases neuronal excitability in hippocampal slices from old rats. Typical traces from hippocampal slice cut transversely at 500 μm thickness from 37 day (A) and 19 month (B) old male rats. Orthodromic extracellular field responses were recorded in the cell body layer of the CA1. Responses were evoked by a bipolar electrode with a constant current stimuli (50 μs duration) delivered every 30 s by electrodes placed in the schaeffer collaterals. 50 nM GnRH1 was used. Mean values are shown in C., n=5 slices each for young rats and n=3 slices each for old rats. Slices from two young and two old animals were used. Superfusion of human GnRH evoked a 50% increase in the maximum amplitude of population spikes in hippocampal slices from old rats compared to controls (FIGS. 3B, C)."}}, "note": "Entries after “also recorded” stand apart in the source; their conditions may differ. No end group written: not given here.", "data": [{"compound": "C[C@]12CC[C@@H]3c4ccc(O)cc4CC[C@H]3[C@@H]1CC[C@@H]2O", "note": "[E2, estradiol]", "values": [{"measurement": "decrease in the rate of hESC proliferation", "setting": "hESC [1]", "result": 16, "unit": "%"}]}, {"compound": "C[C@]12CC[C@@H]3c4ccc(O)cc4C[C@@H](CCCCCCCCC[S+]([O-])CCCC(F)(F)C(F)(F)F)[C@H]3[C@@H]1CC[C@@H]2O", "note": "(stereo partly drawn) [ICI 182,780]", "values": [{"measurement": "EB and neuroectodermal rosette/NPC formation", "setting": "hESC [2]", "result": "No rosettes were detected"}, {"measurement": "nestin expression in antagonist treated structures", "setting": "nestin; antagonist for 11 d (RU-486 20 μM), immunoblot at 19 d", "result": "absence of nestin"}]}, {"compound": "CC(=O)[C@H]1CC[C@H]2[C@@H]3CCC4=CC(=O)CC[C@]4(C)[C@H]3CC[C@]12C", "note": "[P4, pregn-4-ene-3,20-dione]", "values": [{"measurement": "decrease in the rate of hESC proliferation", "setting": "hESC [1]", "result": 29, "unit": "%"}, {"measurement": "EB and neuroectodermal rosette/NPC formation", "setting": "hESC [2]", "result": "a minimum of three rosette structures"}, {"measurement": "nestin expression in hESC", "setting": "nestin; hESC treated for 9 d, E2 10 nM, P4 2 μM, immunoblot", "result": "increased the expression of the neuroectodermal marker nestin; also recorded: induces nestin expression"}]}, {"compound": "CCNC(=O)[C@@H]1CCCN1C(=O)[C@H](CCCNC(=N)N)NC(=O)[C@H](CC(C)C)NC(=O)[C@@H](CC(C)C)NC(=O)[C@H](Cc1ccc(O)cc1)NC(=O)[C@H](CO)NC(=O)[C@H](Cc1c[nH]c2ccccc12)NC(=O)[C@H](Cc1c[nH]cn1)NC(=O)[C@@H]1CCC(=O)N1", "note": "[leuprolide acetate]", "values": [{"measurement": "Aβ deposition", "setting": "[3]", "result": "halts Aβ deposition"}, {"measurement": "cognitive performance", "setting": "[3]", "result": "improves cognitive performance"}]}, {"compound": "GnRH1: human gonadotropin releasing hormone, superfused at 50 nM (QHWSYGLRPG; ends and bridges not checked; UniProt P01148 24-33, looked up)", "values": [{"measurement": "increase in the maximum amplitude of population spikes compared to controls", "setting": "rat hippocampal slices; hippocampal slices from old (19 month old) rats", "result": 50, "unit": "%"}, {"measurement": "increase in neuronal excitability compared to controls", "setting": "rat hippocampal slices; hippocampal slices from young (37 day old) rats", "result": 22, "unit": "%"}, {"measurement": "maximum amplitude of field responses, cell body layer of CA1", "setting": "rat hippocampal slices; old rats, n=3, control 2.54±0.18 mV, p=0.05", "result": "3.99±0.84", "unit": "mV"}, {"measurement": "maximum amplitude of field responses, cell body layer of CA1", "setting": "rat hippocampal slices; young rats, n=5, control 7.0±1.4 mV, p=0.548", "result": "7.9±2.7", "unit": "mV"}]}]}
